Four compounds from EP4417616A1, “LXR ANTAGONISTS” (Ospedale San Raffaele S.r.l., priority 2023, dated 2024) can be followed below.

For one experiment, the target named is T1, LXRβ-LBD (Homo sapiens, UniProt P55055).
T1 construct: expressed in transfected cells; host or cells: Huh7 (printed 'Hhu7') human liver cell line
T1 sequence (P55055 222-460 limits assumed): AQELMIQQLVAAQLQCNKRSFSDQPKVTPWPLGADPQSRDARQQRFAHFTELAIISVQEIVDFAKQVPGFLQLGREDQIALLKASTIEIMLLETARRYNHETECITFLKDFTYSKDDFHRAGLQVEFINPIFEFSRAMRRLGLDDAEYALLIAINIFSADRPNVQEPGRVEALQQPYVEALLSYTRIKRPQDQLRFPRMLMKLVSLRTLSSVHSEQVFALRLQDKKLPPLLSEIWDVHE
The experiment is described as follows: Mammalian two-hybrid assay, RAP250-Del4 with pVP16-LXRβ-LBD. The format is cell-based. Conditions: ligand alone, 10 µM; Huh7 cells.

Another experiment concerns the target T2, LXRα-LBD (Homo sapiens, UniProt Q13133).
T2 construct: expressed in transfected cells; host or cells: Huh7 (printed 'Hhu7') human liver cell line
T2 sequence (Q13133 209-447 limits assumed): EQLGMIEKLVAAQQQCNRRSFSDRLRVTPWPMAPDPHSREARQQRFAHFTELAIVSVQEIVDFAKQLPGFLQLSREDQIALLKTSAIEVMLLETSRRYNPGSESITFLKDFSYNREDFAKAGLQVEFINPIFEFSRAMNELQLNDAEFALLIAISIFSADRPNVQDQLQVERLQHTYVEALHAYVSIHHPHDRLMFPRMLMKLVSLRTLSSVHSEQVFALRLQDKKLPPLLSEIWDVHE
The experiment is described as follows: Mammalian two-hybrid assay, RAP250-Del4 with pVP16-LXRα-LBD. The format is cell-based. To be noted: ligand alone, 10 µM; Huh7 cells.

In another experiment the target is T3, LXRα (Homo sapiens, UniProt Q13133).
T3 construct: expressed in transfected cells; host or cells: HEK293
T3 sequence (Q13133 1-447): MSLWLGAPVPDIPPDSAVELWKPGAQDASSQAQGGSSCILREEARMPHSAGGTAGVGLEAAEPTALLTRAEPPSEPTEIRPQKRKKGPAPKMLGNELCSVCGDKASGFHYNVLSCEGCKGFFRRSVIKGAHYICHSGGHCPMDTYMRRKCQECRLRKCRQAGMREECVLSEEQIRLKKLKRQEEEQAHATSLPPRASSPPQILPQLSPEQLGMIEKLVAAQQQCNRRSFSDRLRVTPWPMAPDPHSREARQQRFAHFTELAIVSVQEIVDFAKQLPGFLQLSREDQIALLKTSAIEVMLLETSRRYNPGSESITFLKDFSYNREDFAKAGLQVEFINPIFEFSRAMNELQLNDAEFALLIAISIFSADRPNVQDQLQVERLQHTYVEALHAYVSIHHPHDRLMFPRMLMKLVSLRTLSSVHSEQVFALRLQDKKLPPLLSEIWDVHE
Nature of the experiment: Luciferase-based reporter assay for LXRα transcriptional activity (HEK293, Gal4-LXRα). It counts as cell-based. Conditions: for antagonism of LXRα activation induced by 22R-HC: 22R-HC 5 or 10 µM, titrating amounts of compound (1-50 µM). How it is done:
Reporter assay for nuclear receptor transcriptional activity. Human embryonic Kidney 293 cells (American Type Culture Collection) were cultured in Dulbecco's Modified Eagle's medium containing 10% of fetal bovine serum at 37°C in humidified atmosphere of 5% CO2. HEK293 cells (4×10^4 cells per well) were transiently transfected in 48 well plate with the reporter plasmids pMH100X4-TK-luc (100 ng/300µl), Renilla (22 ng/300µl) together with 100 ng/300µl of pCMX-Gal4-LXRα or pCMX-Gal4-LXRβ plasmids using X-tremeGENE 9 DNA Transfection Reagent (Roche). Six hours after transfection, the cells were treated with the appropriate compound for 24 hours. Luciferase activities were analyzed by luciferase Dual Reporter Assay Systems (Promega) according to the manufacturer's protocol. GAL4-LXRs, and TK-MHC100-luc plasmids were described in^7. […] Six hours after transfection, the cells were treated with the appropriate compound for 40 hours. Luciferase activity was analyzed as described above and protein content spectrophotometrically using Coomassie Plus Protein assay reagent (Thermo Scientific). Quantitative Real-Time-PCR. U937 cell line was differentiated in foam macrophages with phorbol 12-myristate 13-acetate (PMA) 10 ng/ml (Sigma) for 72 hours at 37°C in RPMI 10% FBS. At day 3 T0901317 (10 µM) or different amount of PFM037 (50, 25 and 10 µM) were added for 16 hours. Total RNA was purified by TRIZOL (Invitrogen). Reverse transcription was performed by MLV-reverse transcriptase (Promega). QPCR was performed using SYBR Green Master Mix (Applied Biosystems) and real-time PCR (Viia 7 Real Time PCR System, Applied Biosystems). PCR reactions were done in triplicate.

For the next experiment, the system named is RMA lymphoma. The experiment is described as follows: Treatment of RMA tumor-bearing mice. To be noted: 300 µg i.v. 5 days/week.
The next experiment has as its system LLC tumor cells. Nature of the experiment: In vitro growth of LLC tumor cells. The format is cell-based, mouse. To be noted: compared with vehicle.
The test system of experiment [1] is Lewis Lung Carcinoma (LLC). The experiment is described as follows: Treatment of LLC tumor-bearing mice. The format is in vivo. The text has this: Tumor challenge experiments.
The mark [2] stands for this setting: LLC-bearing mice, 300 µg i.v. 5 days/week from day 6-7, vs vehicle.

“Also recorded” adds a separate entry of the source.

Description for RMA lymphoma: Analysis of tumor infiltrating cells by flow cytometry. […] Tumors collected 7, 10, 12 or 14 days after injection were cut into small fragments and digested with Liberase TL (66 µg/ml, Roche) and DNAse I (150 µg/ml, Roche) for 25-30 minutes at 37 °C. Digested tissues were filtered by using a 75 µm diameter cell strainer. Single cell suspensions were stained with Live/Dead Violet kit reagents (Molecular Probes) for 30 minutes at 4°C. After washing, the cells were incubated for 5-10 minutes at RT with Fc-blocking solution (Anti-CD16/32, 10 µg/ml mouse Fc Block, BD) and then stained with various antibodies incubated at 4°C for 20 minutes. […] CD209a (5H10), CCR7 (4b12) and F4/80 (BM8) were from eBioscience. Rat IgG, Rat IgG2a, Rat IgG2b, Rat IgM and Hamster isotype control mAbs were used as controls (Biolegends and BD Biosciences). For intracellular staining, cells were incubated with PMA (100 ng/ml) and ionomycin (500 ng/ml) in the presence of 10 µg/ml of Brefeldin for 4 hours. Cells were then fixed using the IC Fixation buffer (eBioscience), permeabilized with 1x Permeabilization buffer (eBiosciences) and stained with anti-IFNy mAb. Samples were run by FACSCanto flow cytometer and analyzed by FlowJo software gating on live cells. FACS sorting was performed by using the FACSAria Fusion (BD)
Tumor challenge experiments. C57BL/6 mice were injected subcutaneously with LLC-Mock (1 ×10^6), LLC-SULT2B1b (1 ×10^6), RMA (2 ×10^5), or B16F1-OVA (2 ×10^5) tumor cells. […] Tumor size was evaluated by measuring perpendicular diameters by a caliper every 2-3 days. Data are reported as the average tumor volume ± SD. In selected experiments tumors were injected in Ccr2^-/-mice.
Treatment of tumor-bearing mice with LXR antagonists alone or with immunotherapy. Tumor-bearing mice were treated with 25-HC-3S or PFM037 6-7 days after tumor challenge. After 6-7 days, mice were randomly assigned to either treatment or vehicle groups. Mice were injected with 300 µg of either compound given i.v. for 5 days/week. […] B16F1-OVA-bearing mice were treated with 400 µg of PFM037 for 5 days/week. For controls of mAb experiments, mice were injected with 250 µg of rat IgG2a isotype control antibody. […] Tumors were collected and measured 14 days after tumor challenge.

Take `CC(C)CC[C@@H](O)[C@@H](C)[C@H]1CC[C@H]2[C@@H]3CC=C4C[C@@H](O)CC[C@]4(C)[C@H]3CC[C@]12C` [22R-HC]: the luciferase activity entry on LXRβ-LBD and on LXRα-LBD was “induced luciferase activity” throughout.

With `CC(C)CC[C@H](O)[C@@H](C)[C@H]1CC[C@H]2[C@@H]3CC=C4C[C@@H](O)CC[C@]4(C)[C@H]3CC[C@]12C` [22S-HC, 22S-hydroxycholesterol], the “antagonism of LXRα activation induced by 22R-HC” value on LXRα is recorded as “does not antagonize; also recorded: did not antagonize”.

By IC50 is commonly meant the midpoint of a concentration-inhibition curve. The low end stands for higher potency, the high end for lower potency. `C[C@H](CCCC(C)(C)O)[C@H]1CC[C@H]2[C@@H]3CC=C4C[C@@H](OS(=O)(=O)O)CC[C@]4(C)[C@H]3CC[C@]12C` [25-HC-3S, 25-Hydroxycholesterol-3-sulfate, reference compound]: in the experiment with RMA lymphoma, the “numbers of tumor-infiltrating mono-DCs” value is given as “Higher”. The tumor growth entry in the experiment with RMA lymphoma (tumor weight at sacrifice) is “tumor growth control”. At LXRα, 12.7 µM corresponded to half-maximal inhibition (IC50) and the “antagonism of LXRα activation induced by 22R-HC” value was “antagonized the LXRα activity in a dose-dependent manner”. Besides, the “in vitro growth of LLC tumor cells” value in the experiment on LLC tumor cells is reported as “grew in a similar manner”. Besides, in experiment [1] (setting [2]), the “absolute numbers of tumor-infiltrating mono-DCs” value is reported as “Higher” and the tumor growth entry was “delay of tumor growth”.

`C[C@@H]([C@H]1CC[C@H]2[C@@H]3CC=C4C[C@@H](O)CC[C@]4(C)[C@H]3CC[C@]12C)[C@@H](O)Cc1ccccc1` [PFM046, (22S)-23-Phenyl-24-norchol-5-en-3β,22-diol]: the tumor growth entry in experiment [1] (established LLC tumors, 300 µg/mouse every other day, Fig. 24B) is recorded as “able to control LLC tumor growth; also recorded: controls tumor growth”.
